Results: US20230128137A1, “BENZO FIVE-MEMBERED CYCLIC COMPOUND” (MEDSHINE DISCOVERY INC., priority 2020, published 2023)

Experiments:
Bcl-2 = target: T1, Bcl-2 (Homo sapiens, UniProt P10415); test: HTRF competition test, Bcl-2 with FAM-BAK peptide (enzymology experiment); assay type: binding; conditions: 4 nM Bcl-2 and 100 nM FAM-BAK, read-out: IC50 (nM) for inhibition of Bcl-2 enzyme
T1 construct: Human recombinant Bcl-2 (amino acid 1-207); purchased Reaction Biology Corporation (RBC) APT-11-441; host or cells: E. coli
Protocol: This experiment was based on the competition between fluorescently-labeled Bak/Bad/Noxa peptides and GST-labeled Bcl family proteins. The fluorescence detection method based on HTRF was to observe the binding degree by using the fluorescence ratio between Tb-labeled anti-GST and FAM-labeled peptides. This peptide binds to the surface of the Bcl family protein pocket, which is essential for its anti-apoptotic function.
1.1 Experimental reagents: analysis buffer: 20 mM potassium phosphate, pH 7.5, 50 mM sodium chloride, 1 mM EDTA, 0.005% Tritonx-100 and 1% DMSO.
1.2 Probe: 5,6-FAM-peptide
1.4 Experimental Conditions:
4 nM Bcl-2 and 100 nM FAM-BAK
a) The Bcl enzyme reaction solution was prepared in the newly prepared analysis buffer;
b) the Bcl enzyme reaction solution was provided;
c) the compound was first prepared into a 100% dimethyl sulfoxide solution, and then the compound solution was mixed with the Bcl enzyme reaction solution using (Echo550; nanoliter range) technology, and co-incubated for 10 minutes;
d) the FAM peptide solution was added.
e) the mixed solution was gently stirred in dark and room temperature, and co-cultured for 10 minutes.
f) Anti-GST solution was added.
g) The mixed solution was gently stirred in dark and room temperature, and co-cultured for 1 hour.
h) The HTRF high-frequency fluorescence ratio was tested, and the IC50 values were calculated.

[1] = Liver microsome metabolic stability in vitro, human; assay type: in vitro ADME; conditions: human liver microsomes
Protocol: (§1) 3.2 preparation of nicotinamide adenine dinucleotide phosphate cofactor solution: an appropriate amount of NADPH powder was weighed and diluted into 10 mM magnesium chloride solution (working solution concentration: 10 unit/mL; final concentration of reaction system: 1 unit/mL);
(§2) 3.3 preparation of liver microsomes: an appropriate concentration working solution of liver microsomes (human, SD rat, CD-1 mouse, beagle dog) was prepared in 100 mM potassium phosphate buffer;
(§3) 3.4 preparation of quenching solution: cold (4° C.) acetonitrile containing 200 ng/mL tolbutamide and 200 ng/mL labetalol as internal standard (IS) was used as quenching solution;
(§4) 3.5 experimental operation:
(§5) a. empty “incubation” plates T60 and NCF60 were preheated for 10 minutes;
(§6) b. the liver microsomes were diluted to 0.56 mg/mL with 100 mM phosphate buffer;
(§7) c. 445 μL of microsomal working solution (0.56 mg/mL) was transferred to the preheated “incubation” plates T60 and NCF60, and then the“incubation” plates T60 and NCF60 were preincubated for 10 min with continuous shaking at 37° C. 54 μL of liver microsomes were transferred to a blank plate, and 6 μL of NAPDH cofactor was added to the blank plate, and then 180 μL of quenching solution was added thereto;
(§8) e. for NCF60 plate, 50 μL of buffer was added thereto and the mixture was fully mixed for three times. Timing was started; the plate was shaken at 37° C. for 60 minutes;
(§9) f. in “quenching” plate TO, 180 μL of quenching solution and 6 μL of NAPDH cofactor were addded to make sure that the plate was cooled down to prevent evaporation;
(§10) g. for T60 plates, the mixture was fully mixed for three times, and 54 μL of mixture was immediately transferred to the “quenching” plate at the 0 min time point. 44 μL of NAPDH cofactor was then added to the culture plate (T60). Timing was started; the plate was shaken at 37° C. for 60 minutes;
(§11) h. at 5, 10, 20, 30 and 60 min, 180 μL of quenching solution was added to the “quenching” plate, and the mixture was mixed for one time, and 60 μL of sample was continuously transferred from the T60 plate to the “quenching” plate at each time point;
(§12) i. for NCF60: the mixture was mixed for one time, and 60 μL of sample was transferred from the NCF60 culture dish to the “quenching” plate containing quenching solution at 60 minutes time point;
(§13) j. all sampling plates were shaked for 10 minutes, then centrifuged at 4000 rpm for 20 minutes at 4° C.;
(§14) k. 60 μL of supernatant was transferred into 180 μL of HPLC water and stirred with a plate shaker for 10 min;
(§15) 1. before LC-MS/MS analysis, each bioanalysis plate was sealed and shaked for 10 minutes.

[2] = Liver microsome metabolic stability in vitro, CD-1 mouse; assay type: in vitro ADME; conditions: CD-1 mouse liver microsomes
Protocol: as §1, §2, §3, §4, §5, §6, §7, §8, §9, §10, §11, §12, §13, §14, §15

T1 sequence (P10415 1-207): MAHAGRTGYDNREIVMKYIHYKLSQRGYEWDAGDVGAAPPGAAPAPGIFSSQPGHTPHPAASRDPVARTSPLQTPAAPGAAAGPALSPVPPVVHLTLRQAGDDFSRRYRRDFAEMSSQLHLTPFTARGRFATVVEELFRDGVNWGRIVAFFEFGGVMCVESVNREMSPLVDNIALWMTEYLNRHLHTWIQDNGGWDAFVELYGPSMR

CC1(C)CCC(CN2CCN(c3ccc(C(=O)NS(=O)(=O)c4cc([N+](=O)[O-])c(NCC5CCOCC5)c5[nH]cnc45)c(Oc4cnc5[nH]ccc5c4)c3)CC2)=C(c2ccc(Cl)cc2)C1 [Compound 2]
IC50 (Bcl-2): 1.5 nM
Remaining (T = 60 min) ([1]; 60 min incubation): 45.6%
CLint scaled at 1 µM ([1]; human): 23.9 mL/min/kg
half-life at 1 µM ([1]; human): 0.87 h
CLint scaled at 1 µM [2]: 79.7 mL/min/kg
half-life at 1 µM [2]: 1.15 h
Remaining (T = 60 min) ([2]; 60 min incubation): 54.6%
